Patent US20110117106A1, “USES OF CALPAIN INHIBITORS TO INHIBIT INFLAMMATION” (priority 2008, published 2011)
“Also recorded” adds a separate entry of the source. Where a SMILES comes first, the peptide text is derived from it. [ ]: non-standard residue; d: D form. Nle = CCCC[C@H](N)C(=O)O

What was measured:
[1] = system: E-cadherin cleavage by calpain (100 kDa E-cadherin cleavage product); assay: E-cadherin cleavage: immunoblot in 1HAEo- cells; assay type: cell-based, human; settings: airway cells, 4 hr stimulation
Description: (§1) 1HAEo-cells or SAECs were grown to confluence on 10 cm plates, stimulated with heat killed PAO1 (10^7 CFU) or P3C (15 μg/ml), and whole cell lysates made using 60 mM n-octyl-β-D-glucopyranoside (OGP) in TBS (0.1 M Tris-HCl and 0.15 M NaCl, pH 7.8) containing Complete Mini protease inhibitor tablets (Roche), 1 mM sodium orthovanadate and 100 mM sodium fluoride. Monoclonal anti-E-cadherin (BD Pharmingen), polyclonal anti-pan calpain (Santa Cruz Biotechnologies) or monoclonal anti-occludin (Invitrogen/Zymed) antibodies were used for immunoprecipitations followed by the addition of Protein G Agarose beads (Invitrogen) (Chun and Prince, 2006). Immunodetection was performed using monoclonal anti-E-cadherin, polyclonal anti-occludin, anti-pan calpain, anti-calpain 1 and anti-calpain 2 antibodies (Santa Cruz Biotechnology).

[2] = system: occludin, E-cadherin and calpain localization in 16HBE cells; assay: Confocal imaging of junctional proteins and calpain in polarized 16HBE cells; assay type: cell-based, human; settings: for Co-localization of calpain and E-cadherin: 1 hr stimulation; for Distribution of occludin and E-cadherin at cell junctions: 6 hr exposure
Description: (§2) 16HBE cells were grown on 3 μm pore size Transwell-Clear filters (Corning-Costar) with an air-liquid interface to form polarized monolayers. For confocal imaging, cells were fixed with 4% paraformaldehyde, blocked with 5% normal donkey serum and incubated at 4° C. overnight with the polyclonal pan-calpain (Santa Cruz Biotechnology), monoclonal occludin (Invitrogen/Zymed) and/or monoclonal E-cadherin (BD Pharmingen) antibodies. Alexa Fluor 594 conjugated and Alexa Fluor 488 conjugated secondary antibodies (Invitrogen/Molecular Probes) were added at room temperature for 1 h. After washing, filters were removed from Transwells using a scalpel, mounted with Vectashield with DAPI (Vector Laboratories) onto glass slides and imaged using a Zeiss LSM 510 Meta scanning confocal microscope. For biotin labeling experiments 1 mg/ml EZ-Link Sulfo-NHS-LC-Biotin was added apically for 30 min at 4° C. before fixing the cells. Alexa Fluor 555 conjugated streptavidin (Molecular Probes) was added for detection of biotin.

[3] = system: epithelial cell junctions of polarized 16HBE cells; assay: Biotin labeling and confocal microscopy of polarized 16HBE monolayers; assay type: cell-based, human; settings: 4 h incubation
Description: as §2

[4] = system: occludin cleavage by calpain (45 kDa occludin cleavage product); assay: Occludin cleavage: immunoprecipitation and immunoblot in 1HAEo- cells; assay type: cell-based, human; settings: for Generation of occludin cleavage product in presence of inhibitor: 6 μM BAPTA/AM, 20 μM ALLN, 20 μM GM6001, 25 μM Z-DEVD-FMK
Description: as §1
1HAEo-cells were transiently transfected with scrambled (control) or calpain 1 and 2 siRNA Smart pool oligos (Dharmacon) (FIGS. 11 and 12). Transfection was carried out using an Amaxa Nucleofector following manufacturer's instructions. Briefly, 10^6 1HAEo-cells were electroporated in 100 μl Buffer L with 1.5 μg of scrambled or siRNA oligo and transferred into pre-warmed 6 well tissue culture dishes. Cells were incubated at 37° C., 5% CO2 for 48 hours before performing experiments.

[5] = system: NF-κB activation, IL-8 production; assay: NF-κB activation and IL-8 production in airway cells; assay type: cell-based; settings: cells treated with BAPTA/AM to chelate intracellular Ca2+
calpain = assay: Calpain assay with cell permeable fluorogenic calpain substrate (Boc-LM-CMAC); assay type: cell-based, human; settings: 1HAEo- cells and SAEC
Description: Confluent monolayers of 1HAEo-cells or SAECs were loaded with 20 μM t-BOC-L-leucine-L-methionine amide (Boc-LM-CMAC), a calpain specific membrane permeable fluorogenic substrate. Cells were stimulated with heat killed PAO1 (10^7 CFU) or P3C (15 μg/ml) and fluorescence was quantified at ex 360 nm and em 465 nm with a Spectrafluor Plus fluorimeter (Tecan).

polarized 16HBE cells [6] = assay: Transepithelial resistance and dextran permeability assays; assay type: cell-based, human
Description: Polarized 16HBE cells grown in 12 mm Transwell-Clear filters (Corning-Costar) were stimulated apically with 10^7 CFU of heat killed PAO1. Transepithelial resistance readings were taken using a Millipore resistance reader which applies a 20 μA square wave alternating current across the monolayers at 12.5 Hz. The resistance of Transwell inserts without cells was used as a baseline control. After 5 h of stimulation, Alexa Fluor 488 labeled dextran (10,000 MW) was added apically for 1 h and fluorescence in the basal compartment monitored at ex 485, em 535 with a SpectraFluor Plus fluorimeter (Tecan). As a positive control, cells were treated apically and basolaterally for 1 h with 0.02% EGTA, an extracellular Ca^2+ chelator which increases paracellular permeability by disrupting cadherin mediated cell-cell adhesion.

polarized 16HBE cells [7] = assay: Bacterial transmigration assay
Description: Polarized 16HBE cells were pretreated with media alone, heat killed PAO1 (10^7 CFU), P3C (15 μg/ml), or thapsigargin (0.1 μM) for 4 h. Live PAO1 (2×10^7 CFU) were added apically for 1 h and media from the basal compartment collected and plated on LB agar plates. Bacterial transmigration across monolayers pretreated with 0.02% EGTA was used as a positive control.

calpain 2 mRNA = assay: Real time PCR of calpains and calpastatin in 1HAEo- cells
[8] = system: SARS-associated coronavirus; settings: one isolate of the coronavirus; cited from earlier work
occludin, Q16625 = molecular target: T1, occludin, Q16625
T1 chain: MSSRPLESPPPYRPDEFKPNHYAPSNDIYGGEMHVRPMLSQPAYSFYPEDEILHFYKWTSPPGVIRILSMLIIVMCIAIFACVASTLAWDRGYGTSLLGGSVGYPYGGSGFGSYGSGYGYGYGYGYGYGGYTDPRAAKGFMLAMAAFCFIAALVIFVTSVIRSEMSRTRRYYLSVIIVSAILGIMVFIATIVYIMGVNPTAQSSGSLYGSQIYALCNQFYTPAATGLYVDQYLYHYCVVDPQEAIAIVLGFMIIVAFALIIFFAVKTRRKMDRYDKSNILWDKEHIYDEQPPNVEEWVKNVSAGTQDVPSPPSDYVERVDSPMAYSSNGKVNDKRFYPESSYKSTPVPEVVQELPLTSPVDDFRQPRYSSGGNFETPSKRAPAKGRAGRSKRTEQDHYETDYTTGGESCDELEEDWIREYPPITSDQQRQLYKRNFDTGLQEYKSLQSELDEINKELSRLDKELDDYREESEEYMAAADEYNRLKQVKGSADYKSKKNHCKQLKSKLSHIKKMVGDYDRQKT

E-cadherin, P12830 = molecular target: T2, E-cadherin, P12830
T2 chain: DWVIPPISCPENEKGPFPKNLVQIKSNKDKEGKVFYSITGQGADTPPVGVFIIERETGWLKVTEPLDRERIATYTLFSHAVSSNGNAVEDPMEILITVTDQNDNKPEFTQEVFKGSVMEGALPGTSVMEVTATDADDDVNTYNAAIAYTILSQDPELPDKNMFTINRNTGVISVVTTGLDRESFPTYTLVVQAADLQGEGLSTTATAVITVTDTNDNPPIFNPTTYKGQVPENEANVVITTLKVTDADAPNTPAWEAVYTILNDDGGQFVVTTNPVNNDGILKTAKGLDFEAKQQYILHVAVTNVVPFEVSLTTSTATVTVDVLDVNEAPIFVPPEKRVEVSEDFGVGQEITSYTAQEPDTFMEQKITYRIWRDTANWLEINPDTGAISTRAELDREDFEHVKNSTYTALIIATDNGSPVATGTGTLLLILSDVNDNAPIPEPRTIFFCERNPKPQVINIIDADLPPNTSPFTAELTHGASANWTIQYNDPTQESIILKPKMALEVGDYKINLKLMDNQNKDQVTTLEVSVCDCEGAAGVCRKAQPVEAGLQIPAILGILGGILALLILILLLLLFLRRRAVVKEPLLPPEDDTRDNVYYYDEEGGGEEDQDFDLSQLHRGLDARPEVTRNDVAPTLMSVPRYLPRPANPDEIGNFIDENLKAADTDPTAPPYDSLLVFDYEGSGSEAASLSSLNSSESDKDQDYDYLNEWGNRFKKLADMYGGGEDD

Molecule: C/C=C(/C)C(=O)O[C@H]1C(C)=C2[C@H]([C@@H]1OC(=O)CCCCCCC)[C@@](C)(OC(C)=O)C[C@H](OC(=O)CCC)[C@@]1(O)[C@H]2OC(=O)[C@@]1(C)O [thapsigargin]
- 100 kDa E-cadherin cleavage product after stimulation [1]: generation of a 100 kDa E-cadherin cleavage product
- Co-localization of calpain and E-cadherin [2]: increased; also recorded: induced mobilization and co-localization of calpain with E-cadherin
- Penetration of biotin between cells of polarized monolayer [3]: resulted in the penetration of biotin; also recorded: increase in accessibility of the junctions to biotin

Molecule: CNC(=O)[C@H](Cc1c[nH]c2ccccc12)NC(=O)[C@@H](CC(=O)NO)CC(C)C [GM6001]
- Generation of occludin cleavage product in presence of inhibitor [4]: neither the general matrix metalloproteinase inhibitor GM6001 nor the caspase inhibitor Z-DEVD-FMK blocked

Molecule: CC(=O)OCOC(=O)CN(CC(=O)OCOC(C)=O)c1ccccc1OCCOc1ccccc1N(CC(=O)OCOC(C)=O)CC(=O)OCOC(C)=O [BAPTA/AM]
- Generation of occludin cleavage product in presence of inhibitor [4]: substantially decreased
- Distal proinflammatory signaling (NF-κB activation, IL-8 production) [5]: unable to activate distal proinflammatory signaling

Molecule: CCCC[C@@H](C=O)NC(=O)[C@H](CC(C)C)NC(=O)[C@H](CC(C)C)NC(C)=O [ALLN, N-acetyl-leucyl-leucyl-norleucinal] (Ac-Leu-Leu-[Nle]-aldehyde)
- Generation of occludin cleavage product in presence of inhibitor [4]: blocked generation of the occludin cleavage product

Molecule: Pam3Cys-Ser-Lys4 [P3C]
- Calpain activity after exposure to the stimulus (calpain): significantly increased; also recorded: sufficient to activate calpain
- Calpain activity after exposure to the stimulus (calpain; listed as Pam3Cys): activates calpain 2
- 45 kDa occludin cleavage product after stimulation ([4]; 1HAEo- and SAEC, 1 hour post stimulation): readily identified
- Transepithelial resistance (polarized 16HBE cells [6]): no changes
- 100 kDa E-cadherin cleavage product after stimulation [1]: generation of a 100 kDa E-cadherin cleavage product
- Bacterial invasion across the monolayer (polarized 16HBE cells [7]): no changes
- Transcription of calpain 2 (calpain 2 mRNA): increased
- Co-localization of calpain and E-cadherin [2]: increased; also recorded: co-localizing with E-cadherin
- Co-localization of calpain and occludin ([2]; 1 h stimulation): Increased co-localization; also recorded: co-localized with membrane-associated occludin; also recorded: Increased colocalization
- Distribution of occludin and E-cadherin at cell junctions [2]: dramatic loss; also recorded: altered
- Distribution of occludin and E-cadherin at cell junctions ([2]; listed as PC3): altered
- Penetration of biotin between cells of polarized monolayer [3]: resulted in the penetration of biotin; also recorded: increase in accessibility of the junctions to biotin

Molecule: COC(=O)CC[C@H](NC(=O)[C@H](CC(=O)OC)NC(=O)OCc1ccccc1)C(=O)N[C@H](C(=O)N[C@@H](CC(=O)OC)C(=O)CF)C(C)C [Z-DEVD-FMK]
- Generation of occludin cleavage product in presence of inhibitor [4]: neither the general matrix metalloproteinase inhibitor GM6001 nor the caspase inhibitor Z-DEVD-FMK blocked

Molecule: NC(=O)c1ncn([C@@H]2O[C@H](CO)[C@@H](O)[C@H]2O)n1 [Ribavirin]
- Virus growth or cell-to-cell spread [8]: does not inhibit

B1: exogenous human calpain 1 (protein)
chain: SEEIITPVYCTGVSAQVQKQRARELGLGRHENAIKYLGQDYEQLRVRCLQSGTLFRDEAFPPVPQSLGYKDLGPNSSKTYGIKWKRPTELLSNPQFIVDGATRTDICQGALGDCWLLAAIASLTLNDTLLHRVVPHGQSFQNGYAGIFHFQLWQFGEWVDVVVDDLLPIKDGKLVFVHSAEGNEFWSALLEKAYAKVNGSYEALSGGSTSEGFEDFTGGVTEWYELRKAPSDLYQIILKALERGSLLGCSIDISSVLDMEAITFKKLVKGHAYSVTGAKQVNYRGQVVSLIRMRNPWGEVEWTGAWSDSSSEWNNVDPYERDQLRVKMEDGEFWMSFRDFMREFTRLEICNLTPDALKSRTIRKWNTTLYEGTWRRGSTAGGCRNYPATFWVNPQFKIRLDETDDPDDYGDRESGCSFVLALMQKHRRRERRFGRDMETIGFAVYEVPPELVGQPAVHLKRDFFLANASRARSEQFINLREVSTRFRLPPGEYVVVPSTFEPNKEGDFVLRFFSEKSAGTVELDDQIQANLPDEQVLSEEEIDENFKALFRQLAGEDMEISVKELRTILNRIISKHKDLRTKGFSLESCRSMVNLMDRDGNGKLGLVEFNILWNRIRNYLSIFRKFDLDKSGSMSAYEMRMAIESAGFKLNKKLYELIITRYSEPDLAVDFDNFVCCLVRLETMFRFFKTLDTDLDGVVTFDLFKWLQLTMFA
- in vitro degradation (cleavage) of the immunoprecipitated protein by Ca2+-activated exogenous calpain, immunoblot (occludin, Q16625): exogenous calpain activated by the addition of Ca2+ degraded occludin and E-cadherin, but not claudin-1 or JAM-1
- in vitro degradation (cleavage) of the immunoprecipitated protein by Ca2+-activated exogenous calpain, immunoblot (E-cadherin, P12830): exogenous calpain activated by the addition of Ca2+ degraded occludin and E-cadherin, but not claudin-1 or JAM-1
